Laboratory results from patent publication US4271170A, “Pyridine derivatives” (Ono Pharmaceutical Co., Ltd.,, priority 1978, dated 1981).
Counter-ions that a name gives are not always drawn. Like-named read-outs stand apart in the source and are kept apart here.

Legend:
[1] = target: T1, thromboxane synthetase from rabbit platelet microsomes (Oryctolagus cuniculus, UniProt G1TAZ9); experiment: inhibition of thromboxane synthetase from rabbit platelet microsomes (conversion of prostaglandin H2 into thromboxane B2); format: biochemical
T1 construct: thromboxane synthetase from rabbit platelet microsomes; from tissue; host or cells: rabbit platelet microsomes
T1 sequence (G1TAZ9 1-530): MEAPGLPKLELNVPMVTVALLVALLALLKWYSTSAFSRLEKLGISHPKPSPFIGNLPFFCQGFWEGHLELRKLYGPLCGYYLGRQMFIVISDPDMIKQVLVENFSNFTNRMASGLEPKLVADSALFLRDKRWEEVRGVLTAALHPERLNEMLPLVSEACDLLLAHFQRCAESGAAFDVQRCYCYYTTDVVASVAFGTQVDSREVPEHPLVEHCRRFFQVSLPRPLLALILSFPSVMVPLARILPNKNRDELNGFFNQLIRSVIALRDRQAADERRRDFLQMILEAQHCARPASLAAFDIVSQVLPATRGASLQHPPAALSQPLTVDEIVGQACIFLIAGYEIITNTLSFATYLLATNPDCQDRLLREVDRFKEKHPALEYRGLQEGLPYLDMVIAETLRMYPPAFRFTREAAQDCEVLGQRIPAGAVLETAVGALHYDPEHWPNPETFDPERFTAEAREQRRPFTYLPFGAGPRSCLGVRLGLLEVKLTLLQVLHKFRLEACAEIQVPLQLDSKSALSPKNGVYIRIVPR

[2] = tested on: thromboxane synthetase; settings: prior-art compounds, literature reports as judged by the applicant; cited from earlier work
[3] = rabbit platelet microsomes, one common range stated for all listed compounds, read-out: molar concentration producing a 50% inhibition of thromboxane synthetase

**Q.** For `C/C(=C\c1ccc(Cc2cccnc2)cc1)C(=O)OCc1ccc(-c2ccccc2)cc1` [(E)-2-Methyl-3-[4-(3-pyridylmethyl)phenyl]acrylic acid biphenylmethyl ester], which IC50 [1, 3] is on record?
**A.** The IC50 was 3 to 650 nM.

**Q.** With `CC(C)(Oc1ccc(Cc2cccnc2)cc1)C(=O)O` [2-Methyl-2-[4-(3-pyridylmethyl)phenoxy]propionic acid hydrochloride] as the molecule, how does the IC50 [1, 3] read?
**A.** The IC50 was 3 to 650 nM.

**Q.** Which IC50 [1, 3] does the source give for `Oc1ccc(Cc2cccnc2)cc1` [4-(3-pyridylmethyl)phenol hydrochloride, 4-(3-Pyridylmethyl)phenol hydrochloride] here?
**A.** Its IC50 is 3 to 650 nM.

**Q.** Which IC50 [1, 3] does the source give for `O=C(O)/C=C/c1ccc(Cc2cccnc2)cc1` [(E)-3-[4-(3-Pyridylmethyl)phenyl]acrylic acid hydrochloride] here?
**A.** Its IC50 is 3 to 650 nM.

**Q.** With `CC(Cc1ccc(C(C)c2cccnc2)cc1)C(=O)O` (centres unmarked) [2-Methyl-3-[4-(1-3'-pyridylethyl)phenyl]propionic acid hydrochloride] as the molecule, how does the IC50 [1, 3] read?
**A.** Its IC50 is 3 to 650 nM.

**Q.** With `C/C(=C\c1ccc(Cc2cccnc2)c(C)c1)C(=O)O` [(E)-2-Methyl-3-[3-methyl-4-(3-pyridylmethyl)phenyl]acrylic acid hydrochloride] as the molecule, how does the IC50 [1, 3] read?
**A.** Its IC50 is 3 to 650 nM.

**Q.** Which “inhibitory activity on thromboxane synthetase” value (“inhibitory activity” below) [2] does the source give for `CC(Cc1ccc(O)c(O)c1)C(C)Cc1ccc(O)c(O)c1` (centres unmarked) [nordihydroguaiaretic acid] here?
**A.** The value was “very weak”.

**Q.** For `CC(Oc1ccc(Cc2cccnc2)cc1)C(=O)O` (centres unmarked) [2-[4-(3Pyridylmethyl)phenoxy]propionic acid hydrochloride], which IC50 [1, 3] is on record?
**A.** Its IC50 is 3 to 650 nM.

**Q.** Which IC50 [1, 3] does the source give for `O=C(O)/C(Br)=C/c1ccc(Cc2cccnc2)cc1` [(2)-2-Bromo-3-[4-(3-pyuridylemthyl)phenyl]acrylic acid hydrochloride] here?
**A.** The IC50 was 3 to 650 nM.

**Q.** For `O=C(O)c1ccc(Cc2cccnc2)cc1` [4-(3-Pyridylmethyl)benzoic acid hydrochloride], which IC50 [1, 3] is on record?
**A.** The IC50 was 3 to 650 nM.

**Q.** For `C/C(=C\c1ccc(Cc2cccnc2)cc1)C(=O)Oc1ccccc1` [(E)-2-Methyl-3-[4-(3-pyridylmethyl)phenyl]acrylic acid phenyl ester], which IC50 [1, 3] is on record?
**A.** The IC50 was 3 to 650 nM.

**Q.** With `CCOC(=O)COc1ccc(Cc2cccnc2)cc1` [4-(3-Pyridylmethyl)phenoxyacetic acid ethyl ester] as the molecule, how does the IC50 [1, 3] read?
**A.** Its IC50 is 3 to 650 nM.

**Q.** For `CC(Cc1ccc(Cc2cccnc2)cc1)C(=O)O` (centres unmarked) [2-Methyl-3-[4-(3-pyridylmethyl)phenyl]propionic acid hydrochloride], which IC50 [1, 3] is on record?
**A.** Its IC50 is 3 to 650 nM.

**Q.** Which IC50 [1, 3] does the source give for `O=C(O)CCc1ccc(Cc2cccnc2)cc1` [3-[4-(3-Pyridylmethyl)phenyl]propionic acid hydrochloride] here?
**A.** Its IC50 is 3 to 650 nM.

**Q.** With `CCCCCC=CC[C@@H](C=CC=CCC=CCCCC(=O)O)OO` [HPETE, 12L-hydroperoxy-5,8,10,14-eicosatetraenoic acid] as the molecule, how does the “inhibitory activity” value [2] read?
**A.** The value was “very weak”.

**Q.** For “sodium p-benzyl-4-[1-oxo-2-(4-chlorobenzyl)-3-phenylpropyl]phenylphosphonate [Example N-0164]”, which “inhibitory activity” value [2] is on record?
**A.** Its value is “very weak”.

**Q.** Which IC50 [1, 3] does the source give for `CC(C)(Cc1ccc(Cc2cccnc2)cc1)C(=O)O` [2,2-Dimethyl-3-[4-(3-pyridylmethyl)phenyl]propionic acid hydrochloride] here?
**A.** Its IC50 is 3 to 650 nM.

**Q.** For `CCOC(=O)C(C)Oc1ccc(Cc2cccnc2)cc1` (centres unmarked) [2-[4-(3-Pyridylmethyl)phenoxy]propionic acid ethyl ester], which IC50 [1] is on record?
**A.** The IC50 was 3 to 650 nM.

**Q.** With `CC(CC(=O)O)c1ccc(Cc2cccnc2)cc1` (centres unmarked) [3-[4-(3-Pyridylmethyl)phenyl]butyric acid hydrochloride] as the molecule, how does the IC50 [1, 3] read?
**A.** Its IC50 is 3 to 650 nM.

**Q.** Which IC50 [1, 3] does the source give for `O=C(O)COc1ccc(Cc2cccnc2)cc1` [2-[4-(3-Pyridylmethyl)phenoxy]acetic acid hydrochloride] here?
**A.** The IC50 was 3 to 650 nM.

**Q.** For `CCSC(=O)/C(C)=C/c1ccc(Cc2cccnc2)cc1` [(E)-2-Methyl-3-[4-(3-pyridylmethyl)phenyl]thioacrylic S-acid S-ethyl ester hydrochloride], which IC50 [1, 3] is on record?
**A.** The IC50 was 3 to 650 nM.

**Q.** With `CCOC(=O)/C(C)=C/c1ccc(Cc2cccnc2)c(C)c1` [(E)-2-Methyl-3-[3-Methyl-4-(3-pyridylmethyl)phenyl]acrylic acid ethyl ester] as the molecule, how does the IC50 [1, 3] read?
**A.** Its IC50 is 3 to 650 nM.

**Q.** Which “inhibitory activity” value [2] does the source give for `Cn1ccnc1` [1-methylimidazole] here?
**A.** The value was “very weak”.

**Q.** Which IC50 [1, 3] does the source give for `C/C(=C\c1cccc(Cc2cccnc2)c1)C(=O)O` [(E)-2-Methyl-3-[3-(3-pyridylmethyl)phenyl]acrylic acid hydrochloride] here?
**A.** The IC50 was 3 to 650 nM.

**Q.** Which IC50 [1, 3] does the source give for `COC(=O)/C(Br)=C/c1ccc(Cc2cccnc2)cc1` [(Z)-2-Bromo-3-[4-(3-pyridylmethyl)phenyl]acrylic acid methyl ester] here?
**A.** The IC50 was 3 to 650 nM.

**Q.** With `CCOC(=O)CCc1ccc(Cc2cccnc2)cc1` [3-[4-(3-Pyridylmethyl)phenyl]propionic acid ethyl ester] as the molecule, how does the IC50 [1, 3] read?
**A.** The IC50 was 3 to 650 nM.

**Q.** With `C/C(=C\c1ccc(C(C)c2cccnc2)cc1)C(=O)O` (centres unmarked) [(E)-2-Methyl-3-[4-(1-3'-pyridylethyl)phenyl]acrylic acid hydrochloride] as the molecule, how does the IC50 [1, 3] read?
**A.** Its IC50 is 3 to 650 nM.

**Q.** For `O=C(O)/C=C/c1ccc(Cc2cccnc2)s1` [(E)-5-(3-Pyridylmethyl)-2-(2-carboxyvinyl)thiophene hydrochloride], which IC50 [1, 3] is on record?
**A.** The IC50 was 3 to 650 nM.

**Q.** Which “inhibitory activity” value [2] does the source give for `CCCCCC(O)C=CC1C2CC(N=N2)C1CC=CCCCC(=O)O` (centres unmarked) [9,11-azo-15-hydroxyprosta-5,13-dienoic acid] here?
**A.** The value was “very weak”.

**Q.** Which IC50 [1, 3] does the source give for `O=C(O)Cc1ccc(Cc2cccnc2)cc1` [4-(3-Pyridylmethyl)phenylacetic acid hydrochloride] here?
**A.** The IC50 was 3 to 650 nM.

**Q.** With `O=C(O)/C=C/c1ccc(C(O)c2cccnc2)cc1` (centres unmarked) [(E)-3-[4-(3-Pyridylhydroxymethyl)phenyl]acrylic acid hydrochloride] as the molecule, how does the IC50 [1, 3] read?
**A.** Its IC50 is 3 to 650 nM.

**Q.** Which IC50 [1, 3] does the source give for `CC/C(=C\c1ccc(Cc2cccnc2)cc1)C(=O)O` [(E)-2-Ethyl-3-[4-(3-pyridylmethyl)phenyl]acrylic acid hydrochloride] here?
**A.** The IC50 was 3 to 650 nM.

**Q.** For `C/C(=C\c1ccc(Cc2cccnc2)cc1)C(=O)Oc1cccc(C(F)(F)F)c1` [(E)-2-Methyl-3-[4-(3-pyridylmethyl)phenyl]acrylic acid 3-trifluoromethylphenyl ester], which IC50 [1, 3] is on record?
**A.** Its IC50 is 3 to 650 nM.

**Q.** With `C/C(=C\c1ccc(Cc2cccnc2)s1)C(=O)O` [(E)-5-(3-Pyridylmethyl)-2-(2-carboxy-1-propenyl(thiophene hydrochloride] as the molecule, how does the IC50 [1, 3] read?
**A.** Its IC50 is 3 to 650 nM.

**Q.** Which “inhibitory activity” value [2] does the source give for `c1c[nH]cn1` [imidazole] here?
**A.** The value was “very weak”.

**Q.** For `C/C(=C\c1ccc(Cc2cnccc2C)cc1)C(=O)O` [(E)-2-Methyl-3-[4-(4-methyl-3-pyridylmethyl)phenyl]acrylic acid hydrochloride], which IC50 [1, 3] is on record?
**A.** Its IC50 is 3 to 650 nM.

**Q.** Which IC50 [1, 3] does the source give for `CCOC(=O)C(C)Cc1ccc(Cc2cccnc2)cc1` (centres unmarked) [2-Methyl-3-[4-(3-pyridylmethyl)phenyl]propionic acid ethyl ester] here?
**A.** The IC50 was 3 to 650 nM.

**Q.** For `CCCCCCCCC1C2COC(C2)C1CCCCCCC(=O)O` (centres unmarked) [9,11-epoxymethanoprostanoic acid], which “inhibitory activity” value [2] is on record?
**A.** Its value is “very weak”.

**Q.** Which IC50 [1, 3] does the source give for `C/C(=C\c1ccc(Cc2cccnc2)cc1)C(=O)Oc1ccccc1C` [(E)-2-Methyl-3-[4-(3-pyridylmethyl)phenyl]acrylic acid 2-methylphenyl ester] here?
**A.** Its IC50 is 3 to 650 nM.

**Q.** Which IC50 [1, 3] does the source give for `C/C(=C\c1ccc(Cc2cccnc2)cc1)C(=O)O` [(E)-2-Methyl-3-[4-(3-pyridylmethyl)pehnyl]acrylic acid hydrochloride] here?
**A.** Its IC50 is 3 to 650 nM.

**Q.** With `CC(C)c1[nH]c2ccccc2c1C(=O)c1cccnc1` [Example L-8027, 2-isopropyl-3-nicotinylindole] as the molecule, how does the “inhibitory activity” value [2] read?
**A.** The value was “very weak”.

**Q.** With `CC(C)(Sc1ccc(Cc2cccnc2)cc1)C(=O)O` [2-Methyl-2-[4-(3-pyridylmethyl)phenylthio]propionic acid hydrochloride] as the molecule, how does the IC50 [1, 3] read?
**A.** The IC50 was 3 to 650 nM.

**Q.** Which IC50 [1, 3] does the source give for `C/C(=C\C(=O)O)c1ccc(Cc2cccnc2)cc1` [(E)-3-[4-(3-Pyridylmethyl)phenyl]-2-butenoic acid hydrochloride] here?
**A.** Its IC50 is 3 to 650 nM.

**Q.** With `Cc1cc(/C=C/C(=O)O)ccc1Cc1cccnc1` [(E)-3-[3-Methyl-4-(3-pyridylmethyl)phenyl]acrylic acid hydrochloride] as the molecule, how does the IC50 [1, 3] read?
**A.** Its IC50 is 3 to 650 nM.

**Q.** Which “inhibitory activity” value [2] does the source give for `CCCCCC(O)C=CC1C2COC(C2)C1CC=CCCCC(=O)O` (centres unmarked) [9,11-epoxymethano-15-hydroxyprosta-5,13-dienoic acid] here?
**A.** Its value is “very weak”.

**Q.** Which IC50 [1, 3] does the source give for `CCOC(=O)/C(C)=C/c1cccc(Cc2cccnc2)c1` [(E)-2-Methyl-3-[3-(3-pyridylmethyl)phenyl]acrylic acid ethyl ester] here?
**A.** Its IC50 is 3 to 650 nM.

**Q.** With `C/C(=C\c1ccc(Cc2cccnc2)cc1)C(=O)OCc1ccccc1` [(E)-2-Methyl-3-[4-(3-pyridylmethyl)phenyl]acrylic acid benzyl ester] as the molecule, how does the IC50 [1, 3] read?
**A.** Its IC50 is 3 to 650 nM.
